Results taken from US20260283149A1, “DEVELOPMENT AND APPLICATION OF SYNTHETIC INHIBITORS OF PHOTOSYNTHESIS” (University of Florida Research Foundation, Incorporated, priority 2023, published 2026).

Experiments:
[1] = system: Synechocystis sp. PCC6803 cells; test: Growth inhibition of Synechocystis sp. PCC 6803 in liquid BG-11 medium; format: cell-based; conditions: for growth inhibition of Synechocystis sp. PCC6803 cells: liquid BG-11 medium with glucose, growth monitored at 700 nm; for inhibitory activity on growth of Synechocystis sp. PCC6803 cells (overall grade): tested at 10 and 25 microM
Protocol: (§1) FIG. 11. Growth inhibition of Arabidopsis and Synechocystis by duroquinone, the unprenylated structural analogue of methyl-plastoquinone-9. (A) Structure of duroquinone. (B) Seven-day-old Arabidopsis plants (Col-0) grown on MS medium containing 1% sucrose (w/v) and 0, 10, 25, 50, or 100 μM duroquinone in 12-hour days (110 μE m^−2 s^−1) at 22° C. (C) Growth curve of Synechocystis sp. PCC 6803 at 30° C. in liquid BG-11 medium containing glucose, and with or without duroquinone. Data are means of three biological replicates±SE. Asterisks indicate significant differences (0 μM vs. 10 μM duroquinone) as determined by Fisher's test (p<α=0.05) from an analysis of variance.
FIG. 13. Growth inhibition of Synechocystis sp. PCC 6803 by structural analogues of methyl-plastoquinone-9. Synechocystis sp. PCC6803 cells were grown in liquid BG-11 medium containing […] (80 μE m^−2 s^−1; 24-hour days; 30° C.). Cell growth was monitored spectrophotometrically at 700 nm.
FIG. 15. Growth curve of Synechocystis treated with analogues grown photomixotrophically and photoautotrophically. Wild-type Synechocystis was grown in BG-11 and either with 5 mM glucose for photomixotrophic or w/o for photoautotrophic with treatment of either 0, 10 or 25 μM of the corresponding methylplastoquinone analog w/ 0.095% EtOH final and grown at a continuous light intensity of 50μ photons m^−2s^−1 at 30° C. with shaking 125 rpm. Data are means of 2 biological replicates ±SD.
Several analogues of Methylplastoquinone (FIG. 14) were tested for their ability to act as herbicides. Synechocystis were grown photomixotrophically (BG-11 plus 5 mM glucose) and photoautotrophically (BG-11 without glucose) at a continuous light intensity of 50μ photons m^−2s^−1 at 30° C. with shaking 125 rpm. The cultures were further treated with 0, 10, or 25 μM Doruquinone (DQ), 2,6-dimethly-1,4-benzoquinone (DMBQ), 2,6-dimethoxy-1,4-benzoquinone (DMOBQ), 2,6-dichloro-1,4-benzoquinone (DCBQ), or 2-chloro-1,4-benzoquinone (CBQ), each with […] ethanol.

[2] = system: Arabidopsis; test: Growth of Arabidopsis plants on MS medium containing the compound; format: in vivo, Arabidopsis thaliana (Col-0); conditions: 1% sucrose, 10-100 μM, applied at 2 to 50 times lower concentrations than standard herbicides such as DCMU or glyphosate
Protocol: as §1
Ten day-old Arabidopsis plants (Col-0) were grown on MS medium containing 1% sucrose (w/v), 0.095% EtOH, and 0, 10, 25, 50 or 100 μM methyl-plastoquinone analogues in 12-h days (photon flux of 110 μmol m^−2s^−1) at 22° C.

[3] = system: Synechocystis; test: Accumulation of methyl-plastoquinone-9 in COQ5-expressing Synechocystis DPhQ-MT knockout cells; format: cell-based, Synechocystis sp. PCC 6803; conditions: especially when cultured photoautotrophically; clones evolve suppressor mutations in COQ5
Excerpt: For expression in Synechocystis, gene sll1653 and N-terminally truncated versions of At5g57300 (S23→M23) and At1g23360 (V28→M28) cDNAs were PCR amplified using primers that contained the NdeI(5′) and BglII(3′) restriction sites. PCR fragments were cloned into NdeI/BglII-digested pSynExp-2 expression vector (Sattler S E et al. “Characterization of tocopherol cyclases from higher plants and cyanobacteria. Evolutionary implications for tocopherol synthesis and function.” Plant Physiol. 132, 2184-2195 (2003)), and the resulting constructs were introduced into Synechocystis Δsll1653::aadA knockout cells (Lohmann A et al. 2006). Transformed cells were selected on BG-11 plates containing and chloramphenicol ([…]), and spectinomycin (15 μg/ml) at 22° C. in 12-hour days (70 μE m^−2s^−1). […] Induction and analyses of chlorophyll fluorescence were performed on one month-old dark-adapted plants using a FluorCam 800 MF imaging system (Photon Systems Instruments).
To further investigate why clade 2 C-methyltransferases evolved strict substrate preference, the effect of replacing cognate cyanobacterial and plastid-targeted DPhQ-MT with a bifunctional COQ5 counterpart was examined. […] These constructs were then introduced into a Synechocystis DPhQ-MT knockout strain and the growth of individual clones was scored via serial dilution assays (FIG. 3 A-B).

[4] = system: Arabidopsis; test: Accumulation of methyl-plastoquinone-9 in dexamethasone-induced plastid-targeted COQ5 Arabidopsis transgenics; format: in vivo, Arabidopsis thaliana; conditions: transgenics are seedling lethal

`O=C1C=CC(=O)C(Cl)=C1` [2-chloro-1,4-benzoquinone] was tested, and the “growth inhibition of Synechocystis sp. PCC6803 cells” value (“growth inhibition” below) ([1]; 10 microM) was “complete growth inhibition”, the “growth inhibition” value ([1]; 25 microM) was “complete growth inhibition” and the “inhibitory activity on growth of Synechocystis sp. PCC6803 cells (overall grade)” value (shortened to “inhibitory activity on growth”) [1] was “as effective as duroquinone”.
For `COC1=CC(=O)C=C(OC)C1=O` [2,6-dimethoxy-1,4-benzoquinone], the “inhibitory activity on growth” value [1] was “low to marginal inhibitory activity”.
`O=C1C=C(Cl)C(=O)C(Cl)=C1` [2,6-dichloro-1,4-benzoquinone] was tested, and the “inhibitory activity on growth” value [1] was “low to marginal inhibitory activity”.
For `CC1=CC(=O)C=C(C)C1=O` [2,6-dimethyl-1,4-benzoquinone], the “growth inhibition” value ([1]; 25 microM) was “complete growth inhibition” and the “inhibitory activity on growth” value [1] was “intermediate inhibitory activity”.
For `CC1=C(C)C(=O)C(C)=C(C)C1=O` [duroquinone], the “toxicity in Arabidopsis” value [2] was “marked toxicity”, the “growth inhibition” value ([1]; 10 microM) was “complete growth inhibition” and the “growth inhibition” value ([1]; 25 microM) was “complete growth inhibition”.
`CC(C)=CCCC(C)=CCCC(C)=CCCC(C)=CCCC(C)=CCCC(C)=CCCC(C)=CCCC(C)=CCC/C(C)=C/CC1=C(C)C(=O)C(C)=C(C)C1=O` [methyl-plastoquinone-9] was tested, and the “toxicity of accumulation in Synechocystis COQ5 transformants” value [3] was “acutely toxic” and the “toxicity of accumulation in Arabidopsis COQ5 transgenics” value [4] was “acutely toxic”.
